Reference: US20120328516A1, “METHOD OF RADIOTHERAPY USING A RADIOLABELLED RGD PEPTIDE” (priority 2009, published 2012)
Starred links: 1 amine or outer side, 2 acyl side, 3 side chain; linkers in the order of their positions; H or OH if unused. Positions of bridges follow the written chain, without caps; N, C: chain ends. Residues, ends and D or L forms follow the SMILES beside them. Groups on a side chain read outwards from the residue. *: point of attachment. X3 = C/C(=N/O)C(C)(C)NCCC(CCNC(C)(C)/C(C)=N\O)CCN*; Glutaryl = O=C(CCCC(=O)[*:2])[*:1]; X2 = NC(=O)COCC(=O)NCCOCCOCCOCCN*

Experiments:
alphavbeta3/5 integrins = experiment: co-registered contrast-enhanced CT and SPECT emission imaging of a necrotic lymph node metastasis for a primary breast cancer; assay type: in vivo
Excerpt: The emission image was obtained for ^99mTc-maraciclatide. The necrotic centre in the CT image which corresponds to no uptake of the agent in the SPECT image.

subcutaneous U87 tumour = experiment: co-registered coronal micro-PET/CT imaging of mouse bearing a subcutaneous U87 tumour; assay type: in vivo, C57/BI6 mouse; conditions: same mouse imaged with ^18F-FDG (3A) and ^18F-fluciclatide (3B); comparison of the two images
Excerpt: FIGS. 3A and 3B show co-registered coronal micro-PET/CT images of the same C57/BI6 mouse bearing a subcutaneous U87 tumour on its left side. The emission image in 3A is that of ^18F-FDG and that in 3B is of ^18F-fluciclatide.

Compound	uptake of the agent in the necrotic centre (alphavbeta3/5 integrins; SPECT image, necrotic centre of lymph node metastasis seen in CT image)	uptake in the sternum (alphavbeta3/5 integrins; concluded to be due to bone marrow uptake)	region surrounding the necrotic centre due to angiogenesis and other expressions of alphavbeta3/5 integrins (alphavbeta3/5 integrins; emission image co-registered with CT)	tumour uptake volume (subcutaneous U87 tumour)
C/C(=N/O)C(C)(C)NCCC(CCNC(=O)CCCC(=O)NCCCC[C@@H]1NC(=O)CSC[C@@H](C(=O)NCCOCCOCCOCCNC(=O)COCC(N)=O)NC(=O)[C@H](Cc2ccccc2)NC(=O)[C@@H]2CSSC[C@H](NC1=O)C(=O)N[C@@H](CCCNC(=N)N)C(=O)NCC(=O)N[C@@H](CC(=O)O)C(=O)N2)CCNC(C)(C)/C(C)=N\O (stereo partly shown) [^99mTc-maraciclatide, metal not drawn] ({CH2CO}-K([Glutaryl-X3])CRGDCFC-X2; disulfide 2-6; thioether N-8)	no uptake	uptake in the sternum	highlighted	
OC[C@H]1OC(O)[C@H](F)[C@@H](O)[C@@H]1O (stereo partly shown) [^18F-FDG, fluorodeoxyglucose, reference compound]				difference in tumour uptake volumes
